We go through five molecules from paper PMC5833777, “Lup-20(29)-en-3β,28-di-yl-nitrooxy acetate affects MCF-7 proliferation through the crosstalk between apoptosis and autophagy in mitochondria” (Cell Death & Disease, 2018).

One may read the IC50 as the concentration that inhibits the measured activity by half. A lower IC50 goes with higher potency. Usually inhibition stands for the relative decrease from the control value, in per cent. A high value points to a strong effect.

Structures are written as SMILES.

One series concerns HeLa. As to the kind of experiment: CCK-8 cell proliferation assay, HeLa. Format: cell-based. The following applies: Homo sapiens, 48 h. As for the experimental part: (§1) Fig. 2 NBT and BT induced cell death in HeLa, A549, and MCF-7 cell lines. a Effects of BT on the proliferation of MCF-7, HeLa, and A549 cells. Cells (5 × 10^3) were seeded in a 96-well plate for 24 h and then treated with increased concentrations of BT for 48 h. The cell viability was evaluated by using CCK-8 assay. b MCF-7, HeLa, and A549 cells (5 × 10^3) were seeded in a 96-well plate for 24 h and were treated with known concentrations of NBT for 48 h. c MCF-7 cells (5 × 10^3) were seeded in a 96-well plate for 24 h and then were treated with known concentrations of NBT for 24 or 48 h. The cell viability was evaluated by using CCK-8 assay. d MCF10A, BEAS-2B, and L-02 cells (5 × 10^3) were seeded in a 96-well plate for 24 h and were treated with 6, 12, and 24 μM concentrations of NBT for 24 or 48 h. The cell viability was evaluated by using CCK-8 assay.
(§2) MCF-7, HeLa, A549, BEAS-2B, MCF10A, and L-02 cell lines were purchased from the American Type Culture Collection (ATCC) (Rockville, Maryland, USA). […]
(§3) Cells were grown in 96-well plates at a density of 5 × 10^3 cells/100 μL for 24 h, and then various concentrations of BT or NBT were added for 24 or 48 h. […] Optical density was measured at 450 nm by using a multimode plate reader (PerkinElmer EnSpire, USA).
(Formazan colour is commonly taken as a measure of viable cells.)

A further series deals with A549. The experiment in a line: CCK-8 cell proliferation assay, A549. In kind it is cell-based. The following applies: Homo sapiens, 48 h. As for the experimental part: as §1, §2, §3
Another series deals with MCF-7. As to the kind of experiment: CCK-8 cell proliferation assay, MCF-7. Format: cell-based. The following applies: Homo sapiens, MCF7, 48 h. As for the experimental part: as §1, §2, §3
Another series has as its system MCF-7 xenograft. The experiment in a line: In vivo antitumor efficacy on MCF-7 tumor-bearing nude mice (tumor volume, H&E, TUNEL). Further details: species or system female BALB/c nude mice. The following applies: for tumor growth compared with the control: i.p. daily for 11 days, NBT 100 mg/kg, BT 100 mg/kg, 5-FU 22 mg/kg. The text has this: Representative images are shown at ×400 magnification. Scale bar: 100 μm. Data represent mean ± SD of three independent experiments
Tumor samples were fixed in 10% formalin, paraffinized, and sectioned into 4-μm sections, which were stained with H&E according to standard methods.
Tumor samples were fixed in 10% formalin, paraffinized, and sectioned into 4-μm sections, which were stained with FITC-POD according to standard methods.

The conditions of series [1]: for coefficient of the heart, liver, spleen, and kidney to the body weight: after 11 days of exposure; for body weight changes: during 11 days of exposure; for ALT/GPT / AST/GOT / BUN / CRE / UA: serum, after 11 days i.p., N = 8, mean ± S.
A further series concerns MCF-7 cells. As to the kind of experiment: Western blots of MCF-7 cell extracts. Format: cell-based. As for the experimental part: MCF-7 cells treated with NBT and/or CQ for 24 h were harvested, washed twice with cold PBS, and then fractionated into cytosolic and mitochondrial fractions by using a Qproteome Mitochondria Isolation Kit (Qiagen, Germany) following the manufacturer’s protocol.
MCF-7 cells treated with NBT and/or CQ for 24 h were lysed in cell lysis buffer containing 1% PMFS for 30 min on ice and centrifuged at 12,000 r.p.m. for 5 min at 4 °C. Then, the protein was quantified by using a BCA Protein Assay Kit (BestBio, Shanghai, China).
Total cell extracts (50 μg) were separated by using SDS-PAGE at 120 V for 1.5 h at room temperature and then eletrotransferred onto PVDF membranes at 300 mA for 1 h at 4 °C. The membranes were washed three times with TBST each for 10 min, blocked with 5% nonfat dry milk in TBST for 2 h at room temperature, rinsed with TBST, incubated with primary antibodies overnight at 4 °C, washed three times with TBST, incubated with HRP-linked anti-IgG for 1 h at room temperature, and then washed three times as before. At the same time, β-actin, GAPDH, and tubulin acted as the control. Afterward, the chemiluminescent bands were analyzed using Image Lab™ Software on ChemiDoc XRS + (Bio-Rad, USA).

[2] abbreviates: MCF-7, 24 h, NBT 6-24 μM, Rapa 0.25 μM, NBT 12 μM + CQ 40 μM.

The molecule `C=C(C)[C@@H]1CC[C@]2(CO)CC[C@]3(C)[C@H](CC[C@@H]4[C@@]5(C)CC[C@H](O)C(C)(C)[C@@H]5CC[C@]43C)[C@@H]12` [BT, Betulin] came in with an IC50 in the series with HeLa of 288 ± 12.3 µM. In addition, the inhibition at 500 µM in the series on A549 was no more than 40%. For the same molecule, the inhibition at 500 µM with MCF-7 is no more than 40%. In the series on MCF-7 xenograft (100 mg/kg i.p., 11 days), the “HE staining of tumors” value was “fibrosis, necrosis, and inflammatory cell infiltration”. Also, the “tumor growth compared with the control” value in the series on MCF-7 xenograft is reported as “minimal reduction in tumor growth”. For the same molecule, in series [1] (100 mg/kg i.p., nude mice), the “safety after 11 days of administration” value was “safe”. Besides, in series [1], the “coefficient of the heart, liver, spleen, and kidney to the body weight” value is recorded as “no significant differences”; the body weight changes entry is “no significant differences”; the ALT/GPT turned out to be 106.33 ± 24.27 IU/L; the AST/GOT is listed as 183.42 ± 39.98 IU/L. Further, in series [1], the BUN amounted to 10.13 ± 3.04 mmol/L, the CRE turned out to be 45.10 ± 6.43 µmol/L and the UA stood at 130.18 ± 25.22 µmol/L.
For `CO[C@H]1C[C@@H]2CC[C@@H](C)[C@@](O)(O2)C(=O)C(=O)N2CCCC[C@H]2C(=O)O[C@H]([C@H](C)C[C@@H]2CC[C@@H](O)[C@H](OC)C2)CC(=O)[C@H](C)/C=C(\C)[C@@H](O)[C@@H](OC)C(=O)[C@H](C)C[C@H](C)/C=C/C=C/C=C/1C` [Rapa, Rapamycin, reference compound], in the series with MCF-7 cells (MCF-7, 0.25 μM alone, 24 h), the “p62 level reduced by” value was 60%. In addition, in the series with MCF-7 cells (setting [2]), the Atg5 level entry is listed as “increased” and the p62 level result is recorded as “decreased”. In the series on MCF-7 cells (MCF-7, 24 h, Rapa 0.25 μM, NBT 12 μM + CQ 40 μM), the LC3B-II level result is given as “increased”.
Regarding `Cn1cnc(N)c2ncnc1-2` [3-MA, 3-methyladenine, reference compound], the “effect on NBT-induced caspase-9 and PARP activation” value with MCF-7 cells (MCF-7, 3-MA 5 mM with NBT 12 μM, 24 h) is listed as “inhibit”.
Take `CCN(CC)CCCC(C)Nc1ccnc2cc(Cl)ccc12` (stereo not drawn) [CQ, Chloroquine, reference compound]: in the series on MCF-7 cells (MCF-7, 40 μM, 24 h), the “p62 level increased by” value came out at 75%.
Take `O=c1[nH]cc(F)c(=O)[nH]1` [5-FU, 5-fluorouracil]: in the series with MCF-7 xenograft, the “tumor growth compared with the control” value is “significant reduction in tumor growth”. In series [1], the “coefficient of the heart, liver, spleen, and kidney to the body weight” value is “no significant differences”; the body weight changes entry is given as “no significant differences”; the ALT/GPT is on record as 95.48 ± 12.86 IU/L; the AST/GOT is reported as 245.71 ± 47.15 IU/L. Further, in series [1], the BUN stood at 9.26 ± 2.23 mmol/L, the CRE came to 32.95 ± 6.29 µmol/L and the UA came to 84.52 ± 6.63 µmol/L.
